Laboratory results taken from US20070014825A1, “Ant bait attractive to many species of ants and useful in their rapid control” (priority 2005, published 2007).

Legend:
[1] = test system: ants; test: Repulsion or loss of attractant activity of bait additives to ants; format: in vivo; conditions: trace amounts added to ant baits
[2] = test system: Carpenter Ant; test: Liquid carpenter ant bait placed on ant trail: distance traveled after ingestion and kill; format: in vivo, Carpenter Ant (Genus Componatus)
Protocol: The above liquid carpenter ant bait was not formulated with a fragrance or dye, although both these additives may can be added. Soak the liquid ant bait in an absorbent wick, cotton ball or tissue and place on ant trail.
A carpenter ant ingested bait 7a for approximately 20 minutes, walked approximately 1.5-2 feet and was killed. Another carpenter ant ingested bait 7b for approximately 20 minutes, walked 20-30 feet, disappearing in the brush.
The ant baits of the above examples were tested in their natural environment where the particular ants were found. The baits were distributed in small amounts in the areas where the ants were seen to be active. All of the baits were readily accepted by the various ants. Gradually in all of the examples the numbers of ants in the treated areas was reduced to the point that none could be found.

O=c1[nH]sc2ccccc12 [1,2-benzisothiazolin-3-one]
Loss in attractant activity of ant bait [1]: Little or no loss in attractant activity

COP(=O)(NC(C)=O)SC (stereo not drawn) [acephate]
Time after Bait Ingestion at which ant disappeared (kill not observed) ([2]; Level of toxicant in Bait 0.2%): after 35-40 minutes | Time of Ingestion of Bait by Ant ([2]; Level of toxicant in Bait 0.2%): ˜20 minutes | Distance Traveled ([2]; Level of toxicant in Bait 0.2%, ant disappeared): 20-30 feet | Nest Killed ([2]; Level of toxicant in Bait 0.2%, entire nest killed): Yes | Distance Traveled ([2]; Level of toxicant in Bait 1.2%): 1.5-2 feet | Nest Killed ([2]; Level of toxicant in Bait 1.2%): No | Time Ant Killed after Bait Ingestion ([2]; Level of toxicant in Bait 1.2%): ˜22-23 minutes | Time of Ingestion of Bait by Ant ([2]; Level of toxicant in Bait 1.2%): ˜20 minutes
